Source: the supplement of paper PMC10883282
Where a name gives a salt, the structure may show the parent alone. ± gives the standard deviation of the averaged measurements.

Tested on: HT1080
Experiment: relative viability vs DMSO control (72 h) (fraction); higher = more viable cells
Outline: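 ATPLite readings, expressed as percent growth and averaged over up to triplicate wells, provided relative viability. Before reading, sarcoma cell lines seeded in 384-well plates to reach 80–90% confluence received 2.5 µl of serially diluted compound after 24 h, from source plates of 10 mM to 0.0002 mM. Plates were held 72 h at 37 °C, 5% CO2, with 0.1% DMSO as vehicle and a 5 µM positive control. The data were rescaled to 1 for full and 0 for none.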

Compound | relative viability (0.00017 µM) | relative viability (0.00051 µM) | relative viability (0.00152 µM) | relative viability (0.00457 µM) | relative viability (0.01372 µM) | relative viability (0.04115 µM) | relative viability (0.1235 µM) | relative viability (0.3704 µM) | relative viability (1.111 µM) | relative viability (3.333 µM) | relative viability (10 µM)
O=C(Nc1cnn2ccc(N3CCC[C@@H]3c3cc(F)ccc3F)nc12)N1CC[C@H](O)C1 [Larotrectinib] | 1.08 ± 0.042 | 1.05 ± 0.035 | 1.05 ± 0.039 | 1.05 ± 0.054 | 1.07 ± 0.038 | 1.06 ± 0.058 | 1.07 ± 0.014 | 1.09 ± 0.036 | 1.04 ± 0.028 | 1.06 ± 0.022 | 1.03 ± 0.022
C[C@@H]1COCCN1c1cc(-c2ccnn2C)c2ccnc(-c3ccn[nH]3)c2n1 | 1.044 ± 0.0047 | 1.03 ± 0.014 | 1.024 ± 0.0029 | 1.02 ± 0.025 | 0.998 ± 0.035 | 0.954 ± 0.017 | 0.735 ± 0.037 | 0.28 ± 0.0093 | 0.191 ± 0.0041 | 0.16 ± 0.0093 | 0.1555 ± 0.00028
CC(C)N1CCN(Cc2cnc(-c3cc(-c4cccc5[nH]ccc45)cc4[nH]ncc34)o2)CC1 [Nemiralisib] | 1 ± 0.045 | 1.03 ± 0.015 | 1.01 ± 0.02 | 1.027 ± 0.0081 | 1.008 ± 0.0024 | 1.02 ± 0.011 | 1.05 ± 0.045 | 1.05 ± 0.034 | 1.08 ± 0.068 | 1.02 ± 0.033 | 0.858 ± 0.024
COc1cccc2c1C(=O)c1c(O)c3c(c(O)c1C2=O)C[C@@](O)(C(=O)CO)C[C@@H]3O[C@H]1C[C@H](N)[C@H](O)[C@H](C)O1 [Doxorubicin Hydrochloride] | 1.09 ± 0.015 | 1.071 ± 0.0078 | 1.04 ± 0.025 | 1.05 ± 0.024 | 0.97 ± 0.028 | 0.707 ± 0.01 | 0.5504 ± 0.0046 | 0.117 ± 0.0055 | 0.105 ± 0.0013 | 0.183 ± 0.0044 | 0.115 ± 0.0043
Nc1cc(C(F)(F)F)c(-c2cc(N3CCOCC3)nc(N3CCOCC3)n2)cn1 [Buparlisib] | 1.01 ± 0.077 | 1.02 ± 0.024 | 1.018 ± 0.0073 | 1.05 ± 0.036 | 1.04 ± 0.015 | 1.03 ± 0.022 | 1.03 ± 0.039 | 1.07 ± 0.013 | 1 ± 0.013 | 0.11 ± 0.0037 | 0.0244 ± 0.0015
Cc1cc(Nc2ncnc3ccc(NC4=NC(C)(C)CO4)cc23)ccc1Oc1ccn2ncnc2c1 [Tucatinib] | 1.06 ± 0.043 | 1.071 ± 0.0057 | 1.108 ± 0.0063 | 1.09 ± 0.054 | 1.1 ± 0.027 | 1.0875 ± 7.1e-05 | 1.08 ± 0.032 | 1.067 ± 0.01 | 1.05 ± 0.011 | 1.06 ± 0.026 | 0.948 ± 0.012
Cc1nc(-c2cn3c(n2)-c2ccc(-c4cnn(C(C)(C)C(N)=O)c4)cc2OCC3)n(C(C)C)n1 [Taselisib] | 1.016 ± 0.01 | 1.01 ± 0.017 | 1.02 ± 0.015 | 1.03 ± 0.056 | 1.02 ± 0.011 | 1.02 ± 0.016 | 1.034 ± 0.0069 | 1.04 ± 0.018 | 1.02 ± 0.052 | 1.01 ± 0.012 | 0.738 ± 0.0029
CN1CCC(COc2cnc(-c3cccc(Cn4nc(-c5cccc(C#N)c5)ccc4=O)c3)nc2)CC1 [Tepotinib] | 1.1 ± 0.066 | 1.09 ± 0.025 | 1.12 ± 0.013 | 1.081 ± 0.0059 | 1.092 ± 0.0041 | 1.07 ± 0.016 | 1.07 ± 0.043 | 1.07 ± 0.059 | 1.04 ± 0.034 | 1.032 ± 0.0023 | 0.8618 ± 0.0058
CNC(=O)c1cc(Oc2ccc(NC(=O)Nc3ccc(Cl)c(C(F)(F)F)c3)c(F)c2)ccn1 [Regorafenib] | 1.1 ± 0.055 | 1.128 ± 0.0073 | 1.09 ± 0.012 | 1.09 ± 0.012 | 1.12 ± 0.028 | 1.11 ± 0.056 | 1.1 ± 0.02 | 1.08 ± 0.021 | 1.05 ± 0.014 | 0.952 ± 0.028 | 0.542 ± 0.062
CCCS(=O)(=O)Nc1ccc(F)c(C(=O)c2c[nH]c3ncc(-c4ccc(Cl)cc4)cc23)c1F [Vemurafenib] | 1.1 ± 0.032 | 1.07 ± 0.049 | 1.09 ± 0.05 | 1.08 ± 0.031 | 1.08 ± 0.044 | 1.07 ± 0.045 | 1.07 ± 0.043 | 1.08 ± 0.04 | 1.13 ± 0.031 | 1.04 ± 0.023 | 0.663 ± 0.25
COc1c(OCCCN2CCOCC2)ccc2c1N=C(NC(=O)c1cnc(N)nc1)N1CCN=C21 [Copanlisib] | 1.15 ± 0.059 | 1.14 ± 0.034 | 1.12 ± 0.04 | 1.111 ± 0.0021 | 1.1 ± 0.017 | 1.12 ± 0.016 | 1.08 ± 0.034 | 0.964 ± 0.026 | 0.65405 ± 0.00049 | 0.342 ± 0.022 | 0.224 ± 0.025
CC(=O)Nc1cccc(-n2c(=O)n(C3CC3)c(=O)c3c(Nc4ccc(I)cc4F)n(C)c(=O)c(C)c32)c1 [Trametinib] | 1.1 ± 0.022 | 1.119 ± 0.0055 | 1.039 ± 0.0014 | 0.981 ± 0.041 | 0.638 ± 0.029 | 0.537 ± 0.017 | 0.478 ± 0.032 | 0.377 ± 0.011 | 0.351 ± 0.02 | 0.334 ± 0.018 | 0.296 ± 0.014
COCc1c(-c2cc3cc(C)cc(OC)c3s2)c2c(N)ncnn2c1CN1CCNC(=O)C1 [Rogaratinib] | 1.08 ± 0.023 | 1.09 ± 0.041 | 1.07 ± 0.028 | 1.038 ± 0.0047 | 1.05 ± 0.013 | 1.06 ± 0.017 | 1.05 ± 0.017 | 1.07 ± 0.04 | 1.084 ± 0.0066 | 1.09 ± 0.024 | 1.06 ± 0.032
COc1cc2/c(=N/c3ccc(Br)cc3F)nc[nH]c2cc1OCC1CCN(C)CC1 [Vandetanib] | 1.02 ± 0.015 | 1.02 ± 0.026 | 1.03 ± 0.026 | 1.03 ± 0.022 | 1.03 ± 0.026 | 1.02 ± 0.034 | 1.02 ± 0.043 | 1.03 ± 0.031 | 1.02 ± 0.02 | 0.962 ± 0.04 | 0.326 ± 0.022
CNC(=O)c1ccc(-c2cnc3ncc(Cc4ccc5ncccc5c4)n3n2)cc1F [Capmatinib] | 1.06 ± 0.022 | 1.06 ± 0.041 | 1.06 ± 0.018 | 1.06 ± 0.014 | 1.06 ± 0.012 | 1.04 ± 0.019 | 1.05 ± 0.014 | 1.05 ± 0.028 | 1.044 ± 0.01 | 0.989 ± 0.015 | 1.005 ± 0.0012
CCN1CCN(Cc2ccc(Nc3ncc(F)c(-c4cc(F)c5nc(C)n(C(C)C)c5c4)n3)nc2)CC1 [Abemaciclib] | 1.05 ± 0.0085 | 1.05 ± 0.034 | 1.06 ± 0.018 | 1.08 ± 0.034 | 1.06 ± 0.011 | 1.07 ± 0.018 | 1.13 ± 0.053 | 1.18 ± 0.045 | 1.15 ± 0.055 | 1.07 ± 0.045 | 0.926 ± 0.063
C=CC(=O)N1CCC[C@@H](n2nc(-c3ccc(Oc4ccccc4)cc3)c3c(N)ncnc32)C1 [Ibrutinib] | 1.07 ± 0.019 | 1.11 ± 0.019 | 1.1 ± 0.012 | 1.05 ± 0.012 | 1.1 ± 0.022 | 1.06 ± 0.055 | 1.06 ± 0.015 | 1.07 ± 0.025 | 1.12 ± 0.027 | 1.14 ± 0.022 | 1.101 ± 0.0017
Cn1cnc2c(F)c(Nc3ccc(Br)cc3F)c(C(=O)NOCCO)cc21 [Binimetinib] | 1.1 ± 0.019 | 1.09 ± 0.031 | 1.09 ± 0.021 | 1.03 ± 0.026 | 1.031 ± 0.0075 | 0.8738 ± 0.0029 | 0.752 ± 0.017 | 0.626 ± 0.015 | 0.577 ± 0.026 | 0.518 ± 0.034 | 0.451 ± 0.032
